Assay: Pharmacokinetics of Free Base Forms I and II in male Beagle dogs after a single oral dose; Compound 1 plasma concentrations by LC-MS/MS
Format: in vivo
Protocol: In this study, male Beagle dogs were administered Free Base Form I and Free Base Form II at 25 mg/kg and 100 mg/kg (0.5% carboxymethylcellulose (CMC) and 0.1% Tween in water at pH 7). The dogs were fasted overnight and then offered food one hour prior to oral administration of the form. Blood samples were collected at predetermined timepoints up to 48 hours. Compound 1 plasma concentrations were determined by liquid chromatography with tandem mass spectrometry (LC-MS/MS) methods.

[1] = 25 mg/kg dose, versus Free Base Form I
[2] = 100 mg/kg dose, versus Free Base Form I

CC(=O)N1CCN([C@H]2CCC[C@@H](NC(=O)c3cc4c(F)ccc(C)c4[nH]3)C2)CC1 [Free Base Form II, N-((1R,3S)-3-(4-acetylpiperazin-1-yl)cyclohexyl)-4-fluoro-7-methyl-1H-indole-2-carboxamide]
Compound 1 AUC0-inf greater than that of Free Base Form I [1]: ~20%
Compound 1 Cmax greater than that of Free Base Form I [1]: ~40%
AUC0-inf greater than that of Free Base Form I [2]: 3.1 fold
Cmax greater than that of Free Base Form I [2]: 1.8 fold
exposure in dogs compared with Free Base Form I (oral 25 and 100 mg/kg, difference dose-dependent): unexpectedly greater exposure

— patent US20250000856A1, “CRYSTALLINE FORMS OF N-((1R,3S)-3-(4-ACETYLPIPERAZIN-1-YL)CYCLOHEXYL)-4-FLUORO-7-METHYL-1H-INDOLE-2-CARBOXAMIDE” (Epizyme, Inc., priority 2021, published 2025)
